Results taken from ChEMBL document CHEMBL1124732, “Synthesis, conformation, and immunosuppressive activities of three analogues of cyclosporin A modified in the 1-position” (1990).

Assay: Relative immunosuppressive activity tested against inhibition of concanavalin A stimulated thymocytes
Type: functional
Parameters: scale not given: the % may be the effect or the level left

CC#CC[C@@H](C)[C@@H](O)[C@H]1C(=O)N[C@@H](CC)C(=O)N(C)CC(=O)N(C)[C@@H](CC(C)C)C(=O)N[C@@H](C(C)C)C(=O)N(C)[C@@H](CC(C)C)C(=O)N[C@@H](C)C(=O)N[C@H](C)C(=O)N(C)[C@@H](CC(C)C)C(=O)N(C)[C@@H](CC(C)C)C(=O)N(C)[C@@H](C(C)C)C(=O)N1C
Activity: 10%
